The subject of this test is L1210 leukemia ip in BDF1 mice, survival T/C. The experiment in a line: NCI In Vivo Anticancer Drug Screen. Data for tumor model L1210 Leukemia (intraperitoneal) in B6D2F1 (BDF1) mice. To be noted: endpoint: mean survival time, higher = longer survival. A digest of the protocol: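 Transplantable tumor model; survival measured in treated vs vehicle control mice. Value = treated/control.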

Setting [1] is: dose: 5.0 mg/kg/injection, schedule: Q01DX001 (ip), vehicle: other.
Where [2] appears, read: dose: 10.0 mg/kg/injection, schedule: Q01DX001 (ip), vehicle: other.
[3] abbreviates: dose: 20.0 mg/kg/injection, schedule: Q01DX001 (ip), vehicle: other.
The mark [4] stands for this setting: dose: 40.0 mg/kg/injection, schedule: Q01DX001 (ip), vehicle: other.
The mark [5] stands for this setting: dose: 150.0 mg/kg/injection, schedule: Q01DX001 (ip), vehicle: saline.

Several values for one entry are separate records, joined by “and”; a condition that tells them apart may be missing. Equal values may be shown once. Toxic doses and inconclusive results are not listed.

In the case of `O=NN(CCF)C(=O)NC1CCS(=O)(=O)CC1`, the T/C (dose: 1.12 mg/kg/injection, schedule: Q01DX015 (ip), vehicle: other) was 119 % of control; the T/C (dose: 1.76 mg/kg/injection, schedule: Q01DX015 (ip), vehicle: other) is 179 % of control; the T/C (dose: 1.9 mg/kg/injection, schedule: Q01DX001 (ip), vehicle: saline with Tween-80) is 201 % of control; the T/C (dose: 2.0 mg/kg/injection, schedule: Q01DX001 (ip), vehicle: other) was 118 % of control; the T/C (dose: 2.68 mg/kg/injection, schedule: Q01DX015 (ip), vehicle: other) was 309 % of control and 311 % of control; the T/C (dose: 3.52 mg/kg/injection, schedule: Q02DX008 (ip), vehicle: other) is 231 % of control and 246 % of control. Besides, the T/C (dose: 3.75 mg/kg/injection, schedule: Q01DX001 (ip), vehicle: other) is 160 % of control; the T/C (dose: 3.8 mg/kg/injection, schedule: Q01DX001 (ip), vehicle: saline with Tween-80) is 207 % of control; the T/C (dose: 4.0 mg/kg/injection, schedule: Q01DX015 (ip), vehicle: other) is 422 % of control and 644 % of control; the T/C (dose: 4.7 mg/kg/injection, schedule: Q## X004 (ip), vehicle: other) is 268 % of control; the T/C under setting [1] was 163 % of control; the T/C (dose: 5.36 mg/kg/injection, schedule: Q02DX008 (ip), vehicle: other) is 484 % of control and 538 % of control. Besides, the T/C reads like this: (dose: 5.6 mg/kg/injection, schedule: Q## X032 (ip), vehicle: other) 261 % of control; (dose: 6.0 mg/kg/injection, schedule: Q01DX015 (ip), vehicle: other) 290 % of control and 433 % of control; (dose: 6.0 mg/kg/injection, schedule: Q## X032 (ip), vehicle: other) 153 % of control; (dose: 7.0 mg/kg/injection, schedule: Q## X004 (ip), vehicle: other) 519 % of control and 532 % of control; (dose: 7.5 mg/kg/injection, schedule: Q01DX001 (ip), vehicle: other) 302 % of control; (dose: 7.5 mg/kg/injection, schedule: Q01DX001 (ip), vehicle: saline with Tween-80) 557 % of control. For the same compound, the T/C (dose: 8.0 mg/kg/injection, schedule: Q01DX001 (ip), vehicle: other) is 186 % of control; the T/C (dose: 8.0 mg/kg/injection, schedule: Q02DX008 (ip), vehicle: other) is 426 % of control and 715 % of control; the T/C (dose: 9.0 mg/kg/injection, schedule: Q01DX015 (ip), vehicle: other) is 339 % of control; the T/C (dose: 9.4 mg/kg/injection, schedule: Q01DX001 (ip), vehicle: other) was 364 % of control; the T/C under setting [2] was 340 % of control; the T/C (dose: 10.7 mg/kg/injection, schedule: Q## X004 (ip), vehicle: other) is 605 % of control and 650 % of control. The T/C by setting is: (dose: 12.0 mg/kg/injection, schedule: Q02DX008 (ip), vehicle: other) 330 % of control and 476 % of control; (dose: 13.0 mg/kg/injection, schedule: Q## X032 (ip), vehicle: other) 468 % of control; (dose: 14.0 mg/kg/injection, schedule: Q01DX001 (ip), vehicle: other) 577 % of control and 580 % of control; (dose: 15.0 mg/kg/injection, schedule: Q01DX001 (ip), vehicle: other) 365 % of control; (dose: 15.0 mg/kg/injection, schedule: Q01DX001 (ip), vehicle: saline with Tween-80) 666 % of control; (dose: 16.0 mg/kg/injection, schedule: Q01DX001 (ip), vehicle: other) 315 % of control. The T/C is 365 % of control and 580 % of control (dose: 16.0 mg/kg/injection, schedule: Q## X004 (ip), vehicle: other); 326 % of control (dose: 18.0 mg/kg/injection, schedule: Q02DX008 (ip), vehicle: other); 180 % of control and 430 % of control (dose: 19.0 mg/kg/injection, schedule: Q## X032 (ip), vehicle: other); 365 % of control under setting [3]; 231 % of control and 271 % of control (dose: 24.0 mg/kg/injection, schedule: Q## X004 (ip), vehicle: other); 115 % of control (dose: 29.0 mg/kg/injection, schedule: Q## X032 (ip), vehicle: other). Besides, the T/C runs as follows: (dose: 30.0 mg/kg/injection, schedule: Q01DX001 (ip), vehicle: other) 365 % of control; (dose: 30.0 mg/kg/injection, schedule: Q01DX001 (ip), vehicle: saline with Tween-80) 677 % of control; (dose: 31.0 mg/kg/injection, schedule: Q01DX001 (ip), vehicle: other) 315 % of control; (dose: 36.0 mg/kg/injection, schedule: Q## X004 (ip), vehicle: other) 253 % of control; under setting [4], 334 % of control.
As to `CC(C)(C)CC(C)(C)c1ccc(OCCOc2ccc(NS(=O)(=O)c3ccc([N+](=O)[O-])cc3)cc2)cc1`, the T/C reads like this: (dose: 100.0 mg/kg/injection, schedule: Q04DX003 (ip), vehicle: Klucel (hydroxypropylcellulose) (HPC)) 91 % of control; (dose: 200.0 mg/kg/injection, schedule: Q04DX003 (ip), vehicle: Klucel (hydroxypropylcellulose) (HPC)) 100 % of control; (dose: 400.0 mg/kg/injection, schedule: Q04DX003 (ip), vehicle: Klucel (hydroxypropylcellulose) (HPC)) 91 % of control.
`N#Cc1nc(CSc2ccc(Cl)cc2)cnc1N`: the T/C was 95 % of control (dose: 100.0 mg/kg/injection, schedule: Q01DX001 (ip), vehicle: Klucel (hydroxypropylcellulose) (HPC)); 92 % of control (dose: 200.0 mg/kg/injection, schedule: Q01DX001 (ip), vehicle: Klucel (hydroxypropylcellulose) (HPC)); 89 % of control (dose: 400.0 mg/kg/injection, schedule: Q01DX001 (ip), vehicle: Klucel (hydroxypropylcellulose) (HPC)).
Turning to `C/C(=N/NC(N)=S)c1ccncc1`, the T/C is 106 % of control (dose: 2.5 mg/kg/injection, schedule: Q01DX009 (ip), vehicle: Klucel (hydroxypropylcellulose) (HPC)); 103 % of control (dose: 5.0 mg/kg/injection, schedule: Q01DX009 (ip), vehicle: Klucel (hydroxypropylcellulose) (HPC)); 94 % of control (dose: 10.0 mg/kg/injection, schedule: Q01DX009 (ip), vehicle: Klucel (hydroxypropylcellulose) (HPC)).
Take `CNC(=O)c1cc(C(=O)NC)c[n+](Cc2c(Cl)cccc2Cl)c1`: the T/C (dose: 18.75 mg/kg/injection, schedule: Q01DX009 (ip), vehicle: saline) is 92 % of control; the T/C (dose: 37.5 mg/kg/injection, schedule: Q01DX009 (ip), vehicle: saline) is 103 % of control; the T/C (dose: 37.5 mg/kg/injection, schedule: Q04DX003 (ip), vehicle: saline) is 100 % of control; the T/C (dose: 75.0 mg/kg/injection, schedule: Q01DX001 (ip), vehicle: saline) was 96 % of control; the T/C (dose: 75.0 mg/kg/injection, schedule: Q01DX009 (ip), vehicle: saline) is 100 % of control; the T/C (dose: 75.0 mg/kg/injection, schedule: Q04DX003 (ip), vehicle: saline) was 105 % of control. Moreover, the T/C is 98 % of control under setting [5] and 97 % of control (dose: 150.0 mg/kg/injection, schedule: Q04DX003 (ip), vehicle: saline).
As for `NCCCCC(=O)NC(CCCCNC(=O)OCc1ccccc1)C(=O)NCCCCC(=O)NC(CCCCNC(=O)OCc1ccccc1)C(=O)NCCCCC(=O)NC(CCCCNC(=O)OCc1ccccc1)C(=O)NCCCCC(=O)NC(CCCCNC(=O)OCc1ccccc1)C(=O)NCCCCC(=O)NC(CCCCNC(=O)OCc1ccccc1)C(=O)NCCCCC(=O)NC(CCCCNC(=O)OCc1ccccc1)C(=O)NCCCCC(=O)NC(CCCCNC(=O)OCc1ccccc1)C(=O)O` (stereo not drawn), the T/C by setting is: (dose: 100.0 mg/kg/injection, schedule: Q01DX001 (ip), vehicle: saline) 92 % of control; (dose: 200.0 mg/kg/injection, schedule: Q01DX001 (ip), vehicle: saline) 90 % of control; (dose: 400.0 mg/kg/injection, schedule: Q01DX001 (ip), vehicle: saline) 95 % of control.
For `COC(=O)CCCN1CC2C=C(C#N)C1C(C(=O)OC)C2` (stereo not drawn), the T/C is 93 % of control under setting [5] and 93 % of control (dose: 300.0 mg/kg/injection, schedule: Q01DX001 (ip), vehicle: saline).
For the compound `CC(=O)OC1CCC(NC(=O)N(CCF)N=O)CC1` (stereo not drawn), the T/C was 298 % of control under setting [3] and 333 % of control under setting [4].
As for `CCN(CC)C(=S)[S][Sn]([Cl])([c]1ccccc1)[c]1ccccc1`, the T/C runs as follows: under setting [1], 102 % of control; under setting [2], 104 % of control; under setting [3], 102 % of control; under setting [4], 102 % of control; (dose: 80.0 mg/kg/injection, schedule: Q01DX001 (ip), vehicle: other) 104 % of control.
For the compound `O=C(O)CCCN1C(=O)CCC1=O`, the T/C was 97 % of control (dose: 100.0 mg/kg/injection, schedule: Q04DX003 (ip), vehicle: saline); 95 % of control (dose: 200.0 mg/kg/injection, schedule: Q04DX003 (ip), vehicle: saline); 106 % of control (dose: 400.0 mg/kg/injection, schedule: Q04DX003 (ip), vehicle: saline).

(Values after PubChem BioAssay AID248 (DTP/NCI, 2004).)
